Experimental data reported in US10300143B2, “Compositions for treating cancer and methods for making the same” (THE BRIGHAM AND WOMEN'S HOSPITAL, INC., priority 2012, dated 2019).
“Also recorded” adds a separate entry of the source.

Tests used:
[1] = cited from earlier work
4T1 breast cancer tumors = assay: Efficacy study of SNPs in murine 4T1 breast cancer model; type: in vivo, BALB/c mice; details: 5 mg/kg PI103 equivalent, 3 injections every other day
Protocol: 4T1 breast cancer cells ([…]) were implanted subcutaneously in the flanks of 4-week-old BALB/c mice. The drug therapy was started on day 9. The drug therapy consisted of administration of PBS (for Control group), free drug (5 mg/kg) and SNPs (5 mg/kg). For PI103-SNPs, the drug therapy also consisted iRGD-PI103-SNPs group (5 mg/kg). The tumor volumes and body weights were monitored on every alternate day for 11 days.
The drug therapy was started on day 9. For PI828-SNPs, the drug therapy consisted of administration of PBS (for Control group), free PI-828 (5 mg/kg) and PI828-SNPs (5 mg/kg). For PI103-SNPs, the drug therapy consisted of administration of PBS (for control group), free PI-103 (5 mg/kg) and PI103-SNPs (5 mg/kg) and 1RGD-PI103-SNPs (5 mg/kg) (administered by tail-vain injection). The tumor volumes and body weights were monitored on every alternate day for 11 days. […] The animals were sacrificed when the average tumor volume of the control exceeded 2000 mm3 in the control group.

PI3K = details: cited from earlier work
[2] = Insulin tolerance test using PI103-SNPs; type: in vivo, mice (murine 4T1 breast cancer model); details: 5 mg/kg single dose, insulin 0.75 U/kg 1 hour later, glucose 45 min after insulin
Protocol: Random fed mice (murine 4T1 breast cancer model) were injected with a single dose of Empty nanoparticles (Control), Free PI-103 (5 mg/kg) and PI103-SNPs via tail vain injections. Freshly prepared Insulin solution (0.75 U/Kg) in 0.1 ml 0.9% NaCl was injected intraperitoneally to mice 1 hour after the drug administration. The blood glucose levels were measured before and 45 min after the insulin injections using glucometer.

[3] = system: phosphorylation of Akt in 4T1 cells; assay: Western blot assay of phospho AKT in cells; type: cell-based, murine
Protocol: The protein was collected and protein lysates were electrophoresed. Then membranes were incubated with Phospho AKT, total AKT and actin antibodies overnight at 4° C. After appropriate amount of washing with TBST, membranes were incubated with horseradish peroxidase-conjugated secondary antibody for 1 hour. Detection was done using G-box (Syngene) and densitometric quantification was done by image J software. […] When cells were 70% confluent, they were incubated in serum free media for 6 hours. Then, free drug or equivalent amount of drug loaded nanoparticles were added in appropriate concentration in serum deprived media (1% FBS). […] Amount of protein was measured by […] and equal amount of protein lysates were electrophoresed on a 4-20% polyacrylamide gel, transferred to polyvinylidene difluoride membrane, and blocked in TBST-T with 5% dry milk. Then membranes were incubated in TBST with Phospho AKT (S473) (1:500 dilution), total AKT (1:1000 dilution), and actin (1:2000 dilution) antibodies (all antibodies from Cell Signalling Technology) overnight at 4° C. After appropriate amount of washing with TBST, membranes were incubated with horseradish peroxidase-conjugated secondary antibody for 1 hour. Detection was done using G-Box™ from Syngene and densitometric quantification was done by image J™ software.

[4] = system: 4T1 murine breast cancer cell line; assay: Cell viability (MTS) assay; type: cell-based; details: Mus musculus
Protocol: (§1) 4T1 and MDA MB 468 breast cancer cells were cultured in RPMI, 4306 ovarian cancer cells were cultured in DMEM, supplemented with 10% FBS and 1% of Antibiotic-Antimycotic 100× solution. 4×10^3 Cells were seeded into 96-well flat-bottomed plates. Free drug or drug loaded nanoparticles (normalized to equivalent amounts of free drug) were added in triplicate in each 96-well plate and then plates were incubated in 5% CO^2 atmosphere at 37° C. After desired time period of incubation, cells were washed and incubated with 100 μL phenol-red free medium (without FBS) containing 20 μl of the CellTiter 96 Aqueous One Solution reagents (PROMEGA, WI). After 2 hours incubation, the absorbance in each well was recorded.
(§2) 4T1 and MDA MB 468 breast cancer cells were cultured in RPMI, 4306 ovarian cancer cells were cultured in DMEM, supplemented with 10% FBS and 1% of Antibiotic-Antimycotic 100× solution (Invitrogen, 15240-062). 4×10^3 Cells were seeded into 96-well flat-bottomed plates. Free drug or drug loaded nanoparticles (normalized to equivalent amounts of free drug) was added in triplicate in each 96-well plate at appropriate concentrations (1, 10, 100 nM and 1, 10, and […]) and then plates were incubated in 5% CO2 atmosphere at 37° C. After desired time period of incubation, cells were washed and incubated with […] phenol-red free medium (without FBS) containing […] of the CellTiter 96 Aqueous One Solution reagents (Promega, WI). After 2 hours incubation in a 5% CO2 atmosphere at 37° C., the absorbance in each well was recorded at 490 nm using an Epoch plate reader (Biotek instruments, VT). The absorbance reflects the number of surviving cells. Blanks were subtracted from all data and results analyzed using GraphPad Prism™ software (GraphPad, San Diego, Calif.). Each experiment was independently repeated thrice and data shown is mean±SE of n=3.

[5] = system: MDA-MB-468 human breast cancer cell line; assay: Cell viability (MTS) assay; type: cell-based
Protocol: as §1, §2

[6] = system: PI3K-overexpressing 4306 ovarian cancer cell line; assay: Cell viability (MTS) assay; type: cell-based
Protocol: as §1, §2

In the case of `Oc1cccc(-c2nc(N3CCOCC3)c3oc4ncccc4c3n2)c1` [PI103], the aqueous solubility [1] is given as “limited aqueous solubility”, the tumor growth (4T1 breast cancer tumors) is given as “tumor growth inhibition relative to PBS-treated controls, but tumor rebound was observed after the treatment was stopped” and the PI3K inhibitory potency (PI3K) is given as “excellent potency in the low nanomolar range; also recorded: more potent”. The “blood glucose level after insulin injection” value [2] was “only a minor decrease in blood glucose level”, the “phosphorylation of AKT after transient exposure” value ([3]; 4 hours exposure, wash, followed to 48 hours) was “rebound increase in phosphorylation of AKT” and the “basal phosphorylation of Akt” value ([3]; equimolar PI103 (5 pM), continuous incubation, 48 hours) was “inhibited basal phosphorylation of Akt even at 48 hours of continuous incubation”. The IC50 ([4]; 48 hours) was 122 ± 3.15 nM, the IC50 ([4]; 72 hours) was 67.3 ± 3.4 nM and the IC50 ([5]; 48 hours) was 445 ± 67 nM. It also gave an IC50 ([5]; 72 hours) of 312 ± 49 nM, an IC50 ([6]; 48 hours) of 286 ± 45 nM and an IC50 ([6]; 72 hours) of 392 ± 49.3 nM.
